{
  "source": "ChEMBL document CHEMBL1687726",
  "about": "“Amphotericin B-induced renal tubular cell injury is mediated by Na+ Influx through ion-permeable pores and subsequent activation of mitogen-activated protein kinases and elevation of intracellular Ca2+ concentration” (Antimicrob Agents Chemother, 2009)",
  "key": {"LLC-PK1 [1]": {"tested_on": "LLC-PK1", "assay": "Cytotoxicity against pig LLC-PK1 cells at 15 ug/ml after 6 hrs by WST-8 assay in presence of 2 uM […]", "type": "cell-based, Sus scrofa", "conditions": "llc-pk1, 6 h"}, "LLC-PK1 [2]": {"tested_on": "LLC-PK1", "assay": "Cytotoxicity against pig LLC-PK1 cells at 15 ug/ml after 6 hrs pretreated for 1 hr with membrane cholesterol depletion agent methyl-beta-cyclodextrin in presence of 4% v/v cholesterol repletion condition", "type": "cell-based, Sus scrofa", "conditions": "llc-pk1, 6 h"}, "LLC-PK1 [3]": {"tested_on": "LLC-PK1", "assay": "Induction of JNK phosphorylation in pig LLC-PK1 cells at 15 ug/ml by Western blot analysis in presence of 2 uM […]", "type": "cell-based", "conditions": "Sus scrofa"}, "LLC-PK1 [4]": {"tested_on": "LLC-PK1", "assay": "Cytotoxicity against pig LLC-PK1 cells at 20 ug/mL by WST-8 assay", "type": "cell-based, Sus scrofa", "conditions": "TDE = time-dependent effect"}, "LLC-PK1 [5]": {"tested_on": "LLC-PK1", "assay": "Induction of JNK phosphorylation in pig LLC-PK1 cells at 15 ug/ml by Western blot analysis", "type": "cell-based", "conditions": "Sus scrofa"}, "LLC-PK1 [6]": {"tested_on": "LLC-PK1", "assay": "Induction of p38 phosphorylation in pig LLC-PK1 cells at 15 ug/ml by Western blot analysis in presence of 2 uM […]", "type": "cell-based", "conditions": "Sus scrofa"}, "LLC-PK1 [7]": {"tested_on": "LLC-PK1", "assay": "Cytotoxicity against pig LLC-PK1 cells at 15 ug/ml after 24 hrs by propidium iodide staining", "type": "cell-based, Sus scrofa", "conditions": "llc-pk1, 24 h"}, "LLC-PK1 [8]": {"tested_on": "LLC-PK1", "assay": "Cytotoxicity against pig LLC-PK1 cells at 15 ug/ml after 6 hrs pretreated with 10 uM of mitochondrial Na+ -Ca2+ exchange inhibitor CGP for 20 mins by WST-8 assay", "type": "cell-based, Sus scrofa", "conditions": "llc-pk1, 6 h"}, "LLC-PK1 [9]": {"tested_on": "LLC-PK1", "assay": "Cytotoxicity against pig LLC-PK1 cells at 15 ug/ml after 6 hrs pretreated with 10 uM of ERK inhibitor PD98059 for 1 hr by WST-8 assay", "type": "cell-based, Sus scrofa", "conditions": "llc-pk1, 6 h"}, "LLC-PK1 [10]": {"tested_on": "LLC-PK1", "assay": "Induction of mitochondrial membrane depolarization in pig LLC-PK1 cells at 15 ug/ml after 3 hrs pretreated with 10 uM of JNK inhibitor 2 for 1 hr by JC-1 staining based fluorescent microscopy", "type": "cell-based, Sus scrofa", "conditions": "llc-pk1, 3 h"}, "LLC-PK1 [11]": {"tested_on": "LLC-PK1", "assay": "Induction of mitochondrial membrane depolarization in pig LLC-PK1 cells at 15 ug/ml after 3 hrs by JC-1 staining based fluorescent microscopy", "type": "cell-based, Sus scrofa", "conditions": "llc-pk1, 3 h"}, "LLC-PK1 [12]": {"tested_on": "LLC-PK1", "assay": "Cytotoxicity against pig LLC-PK1 cells at 15 ug/ml after 6 hrs pretreated with 1 uM of IP3 antagonist Xesto for 20 mins by WST-8 assay", "type": "cell-based, Sus scrofa", "conditions": "llc-pk1, 6 h"}, "LLC-PK1 [13]": {"tested_on": "LLC-PK1", "assay": "Cytotoxicity against pig LLC-PK1 cells at 1 to 20 ug/mL after 24 hrs by WST-8 assay", "type": "cell-based, Sus scrofa", "conditions": "llc-pk1, 24 h"}, "LLC-PK1 [14]": {"tested_on": "LLC-PK1", "assay": "Cytotoxicity against pig LLC-PK1 cells at 15 ug/ml after 6 hrs by WST-8 assay in presence of 1 mM […] Ca2+ chelating agent EGTA", "type": "cell-based, Sus scrofa", "conditions": "llc-pk1, 6 h"}, "LLC-PK1 [15]": {"tested_on": "LLC-PK1", "assay": "Induction of ERK phosphorylation in pig LLC-PK1 cells at 15 ug/ml by Western blot analysis", "type": "cell-based", "conditions": "Sus scrofa"}, "LLC-PK1 [16]": {"tested_on": "LLC-PK1", "assay": "Cytotoxicity against pig LLC-PK1 cells at 15 ug/ml after 6 hrs by WST-8 assay in presence low extracellular Na+ level (70 mM Na+)", "type": "cell-based, Sus scrofa", "conditions": "llc-pk1, 6 h"}, "LLC-PK1 [17]": {"tested_on": "LLC-PK1", "assay": "Induction of ERK phosphorylation in pig LLC-PK1 cells at 15 ug/ml by Western blot analysis in presence of 2 uM […]", "type": "cell-based", "conditions": "Sus scrofa"}, "LLC-PK1 [18]": {"tested_on": "LLC-PK1", "assay": "Induction of mitochondrial membrane depolarization in pig LLC-PK1 cells at 15 ug/ml after 3 hrs pretreated with 10 uM of mitochondrial Ca2+ uniport inhibitor RR for 1 hr by JC-1 staining based fluorescent microscopy", "type": "cell-based, Sus scrofa", "conditions": "llc-pk1, 3 h"}, "LLC-PK1 [19]": {"tested_on": "LLC-PK1", "assay": "Decrease in intracellular ATP level in pig LLC-PK1 cells at 10 ug/ml after 24 hrs by HPLC/MS analysis", "type": "ADME, cell-based, Sus scrofa", "conditions": "llc-pk1, 24 h, TDE = time-dependent effect"}, "LLC-PK1 [20]": {"tested_on": "LLC-PK1", "assay": "Cytotoxicity against pig LLC-PK1 cells at 15 ug/ml after 6 hrs pretreated with 10 uM of JNK inhibitor 2 for 1 hr by WST-8 assay", "type": "cell-based, Sus scrofa", "conditions": "llc-pk1, 6 h"}, "LLC-PK1 [21]": {"tested_on": "LLC-PK1", "assay": "Cytotoxicity against pig LLC-PK1 cells at 15 ug/ml after 6 hrs pretreated with 10 uM of mitochondrial Ca2+ uniport inhibitor RR for 20 mins by WST-8 assay", "type": "cell-based, Sus scrofa", "conditions": "llc-pk1, 6 h"}, "LLC-PK1 [22]": {"tested_on": "LLC-PK1", "assay": "Cytotoxicity against pig LLC-PK1 cells at 1 to 20 ug/mL after 24 hrs by LDH leakage assay", "type": "cell-based, Sus scrofa", "conditions": "llc-pk1, 24 h"}, "LLC-PK1 [23]": {"tested_on": "LLC-PK1", "assay": "Cytotoxicity against pig LLC-PK1 cells at 15 ug/ml after 6 hrs pretreated for 1 hr with membrane cholesterol depletion agent methyl-beta-cyclodextrin", "type": "cell-based, Sus scrofa", "conditions": "llc-pk1, 6 h"}, "LLC-PK1 [24]": {"tested_on": "LLC-PK1", "assay": "Cytotoxicity against pig LLC-PK1 cells at 15 ug/ml after 6 hrs pretreated with 10 uM of p38 MAPK inhibitor PD169316 for 1 hr by WST-8 assay", "type": "cell-based, Sus scrofa", "conditions": "llc-pk1, 6 h"}, "LLC-PK1 [25]": {"tested_on": "LLC-PK1", "assay": "Induction of p38 phosphorylation in pig LLC-PK1 cells at 15 ug/ml by Western blot analysis", "type": "cell-based", "conditions": "Sus scrofa"}, "LLC-PK1 [26]": {"tested_on": "LLC-PK1", "assay": "Induction of mitochondrial membrane depolarization in pig LLC-PK1 cells at 15 ug/ml after 3 hrs pretreated with 10 uM of mitochondrial Na+ -Ca2+ exchange inhibitor CGP for 1 hr by JC-1 staining based fluorescent microscopy", "type": "cell-based, Sus scrofa", "conditions": "llc-pk1, 3 h"}, "LLC-PK1 [27]": {"tested_on": "LLC-PK1", "assay": "Cytotoxicity against pig LLC-PK1 cells at 20 ug/mL by LDH leakage assay", "type": "cell-based, Sus scrofa", "conditions": "TDE = time-dependent effect"}, "LLC-PK1 [28]": {"tested_on": "LLC-PK1", "assay": "Induction of apoptosis in pig LLC-PK1 cells at 15 ug/ml after 24 hrs by TUNEL assay", "type": "cell-based, Sus scrofa", "conditions": "llc-pk1, 24 h"}, "LLC-PK1 [29]": {"tested_on": "LLC-PK1", "assay": "Cytotoxicity against pig LLC-PK1 cells at 15 ug/ml after 6 hrs pretreated with 30 uM of ryanodine receptor antagonist Dant for 20 mins by WST-8 assay", "type": "cell-based, Sus scrofa", "conditions": "llc-pk1, 6 h"}, "LLC-PK1 [30]": {"tested_on": "LLC-PK1", "assay": "Induction of mitochondrial membrane depolarization in pig LLC-PK1 cells at 15 ug/ml after 3 hrs pretreated with 10 uM of ERK inhibitor PD98059 for 1 hr by JC-1 staining based fluorescent microscopy", "type": "cell-based, Sus scrofa", "conditions": "llc-pk1, 3 h"}, "LLC-PK1 [31]": {"tested_on": "LLC-PK1", "assay": "Decrease in intracellular ATP level in pig LLC-PK1 cells after 24 hrs by HPLC/MS analysis", "type": "ADME, cell-based, Sus scrofa", "conditions": "llc-pk1, 24 h"}},
  "note": "Calls of active or inactive are those of the source. The calls are words filed in the database; no cut-off is given here.",
  "data": [
    {"compound": "C[C@@H]1[C@H](O)[C@@H](C)/C=C/C=C/C=C/C=C/C=C/C=C/C=C/[C@H](O[C@@H]2O[C@H](C)[C@@H](O)[C@H](N)[C@@H]2O)C[C@@H]2O[C@](O)(C[C@@H](O)C[C@@H](O)[C@H](O)CC[C@@H](O)C[C@@H](O)CC(=O)O[C@H]1C)C[C@H](O)[C@H]2C(=O)O", "note": "[AMPHOTERICIN B]", "values": [
      {"measurement": "Activity", "setting": "LLC-PK1 [1]", "result": "Toxic"},
      {"measurement": "Activity", "setting": "LLC-PK1 [2]", "result": "Toxic"},
      {"measurement": "Activity", "setting": "LLC-PK1 [3]", "result": "Active"},
      {"measurement": "Activity", "setting": "LLC-PK1 [4]", "result": "tde"},
      {"measurement": "Activity", "setting": "LLC-PK1 [5]", "result": "Active"},
      {"measurement": "Activity", "setting": "LLC-PK1 [6]", "result": "Active"},
      {"measurement": "Activity", "setting": "LLC-PK1 [7]", "result": "Toxic"},
      {"measurement": "Activity", "setting": "LLC-PK1 [8]", "result": "Non-toxic"},
      {"measurement": "Activity", "setting": "LLC-PK1 [9]", "result": "Non-toxic"},
      {"measurement": "Activity", "setting": "LLC-PK1 [10]", "result": "Toxic"},
      {"measurement": "Activity", "setting": "LLC-PK1 [11]", "result": "Toxic"},
      {"measurement": "Activity", "setting": "LLC-PK1 [12]", "result": "Toxic"},
      {"measurement": "Activity", "setting": "LLC-PK1 [13]", "result": "Dose-dependent effect"},
      {"measurement": "Activity", "setting": "LLC-PK1 [14]", "result": "Non-toxic"},
      {"measurement": "Activity", "setting": "LLC-PK1 [15]", "result": "Active"},
      {"measurement": "Activity", "setting": "LLC-PK1 [16]", "result": "Non-toxic"},
      {"measurement": "Activity", "setting": "LLC-PK1 [17]", "result": "Active"},
      {"measurement": "Activity", "setting": "LLC-PK1 [18]", "result": "Toxic"},
      {"measurement": "Activity", "setting": "LLC-PK1 [19]", "result": "tde"},
      {"measurement": "Activity", "setting": "LLC-PK1 [20]", "result": "Non-toxic"},
      {"measurement": "Activity", "setting": "LLC-PK1 [21]", "result": "Non-toxic"},
      {"measurement": "Activity", "setting": "LLC-PK1 [22]", "result": "Dose-dependent effect"},
      {"measurement": "Activity", "setting": "LLC-PK1 [23]", "result": "Non-toxic"},
      {"measurement": "Activity", "setting": "LLC-PK1 [24]", "result": "Non-toxic"},
      {"measurement": "Activity", "setting": "LLC-PK1 [25]", "result": "Active"},
      {"measurement": "Activity", "setting": "LLC-PK1 [26]", "result": "Toxic"},
      {"measurement": "Activity", "setting": "LLC-PK1 [27]", "result": "tde"},
      {"measurement": "Activity", "setting": "LLC-PK1 [28]", "result": "Non-toxic"},
      {"measurement": "Activity", "setting": "LLC-PK1 [29]", "result": "Non-toxic"},
      {"measurement": "Activity", "setting": "LLC-PK1 [30]", "result": "Toxic"},
      {"measurement": "Activity", "setting": "LLC-PK1 [31]", "result": "Dose-dependent effect"}
    ]}
  ]
}
